Common to all, as to type: binding, human
One assay has as its system KDM5B (PHD1). Nature of the assay: Peptide pulldown (immunoblot). As to conditions: n = 2. Here is the method: (§1) The 31 GST-tagged PHD readers identified in the PHD finger domain array were expressed and purified as previously. Histone peptide arrays and peptide pulldown assays were conducted as recently described (specifically, the optimized protocol from Petell et al. for the former).
(§2) Figure S5. Peptide Pulldowns with KDM7A and KDM5B (PPC2W2). Representative immunoblot analysis of peptide pulldowns for the PHD fingers of KDM7A and KDM5B (PHD1) with the peptides indicated on the top of the image (n=2).

A further assay relates to DIDO1. Nature of the assay: dCypher AlphaScreen Phase B (full peptide screen). As to conditions: reader 0.1 nM, 100 nM peptide, 23 °C, n = 2. Here is the method:
(§3) X-axes are log(protein concentration (M)) at constant peptide concentration (100 nM); Y-axes are AlphaScreen counts, representing relative strength of binding (n = 2; error bars are S.D.). i Heat map represents relative binding to H3 N-terminal peptides (left) by PHD-containing GST-tagged proteins (top) using the dCypher AlphaScreen platform. Protein concentrations can be found in Additional file 5: Table S4. Binding strength is indicated by color gradient from green to yellow (stronger to weaker). […] Alpha counts (n = 2) were normalized individually for each protein to the highest signal for each respective assay. For full dCypher peptide screen data, see Additional file 4: Table S3
(§4) Once the optimal protein concentration ranges for each of the eight readers were determined, we conducted the full dCypher peptide screen (293 histone peptides) (Fig. 3i; Additional file 4: Table S3).
(§5) The dCypher peptide screen assay was performed as previously described. Briefly, 5 μL of GST-tagged reader domains (optimal protein concentration for library screening determined by initial binding curves to candidate peptides) were incubated with 5 μL of 400 nM (100 nM Final) biotinylated histone peptides (EpiCypher) for 30 min at 23 °C in 1× AlphaLISA Epigenetics buffer + epigenetics buffer supplement (PerkinElmer, AL1008) in a 384-well plate. A 10 μL mix of 5 µg/mL (2.5 μg/mL final) glutathione Acceptor beads (PerkinElmer, AL109M) and 10 μg/mL (5 μg/mL final) streptavidin Donor beads (PerkinElmer, 6760002) was prepared in 1× [Epigenetics buffer + supplement] and added to each well. Plates were incubated at 23 °C in subdued lighting for 60 min and AlphaLISA signal measured on a PerkinElmer 2104 EnVision (680 nm laser excitation, 570 nm emission filter ± 50 nm bandwidth).
(§6) Supplementary file 13072_2020_328_MOESM4_ESM.xlsx: Additional file 4: Table S3. dCypher Results. Excel Tab Peptide Phase A is a compiled set of binding data: chromatin reader titration vs. several peptide targets. Data is presented as raw Alpha counts in duplicates at each concentration tested. Excel Tab Peptide Phase B is a compiled set of binding data: chromatin reader at optimized concentrations vs. entire 293 peptide library. Data is presented as the average and standard deviation of duplicates. […] Key: red = strong binding; blue = weak/no binding.
(In Alpha technology, singlet oxygen from a donor bead excites a nearby acceptor bead.)

The next assay concerns MLL5. Nature of the assay: dCypher AlphaScreen Phase B (full peptide screen). To be noted: reader 0.02 nM, 100 nM peptide, 23 °C, n = 2. Here is the method:
as §3, §4, §5, §6

A further assay has as its system KDM7A. Nature of the assay: dCypher AlphaScreen Phase B (full peptide screen). As to conditions: reader 0.15 nM, 100 nM peptide, 23 °C, n = 2. Here is the method: as §3, §4, §5, §6
Another assay has as its system KDM7A PHD finger. Nature of the assay: Peptide pulldown (immunoblot). To be noted: n = 2. Here is the method:
as §1, §2
In general terms: In western blotting, separated proteins are transferred to a membrane and probed.

A further assay relates to DPF2 (PPC2W2). Nature of the assay: dCypher AlphaScreen Phase B (full peptide screen). To be noted: reader 0.1 nM, 100 nM peptide, 23 °C, n = 2. Here is the method: as §3, §4, §5, §6
In another assay the test system is H3K4me0 readers. Nature of the assay: dCypher AlphaScreen Phase B (full peptide screen), H3K4me0 readers together. To be noted: 100 nM peptide, 23 °C, n = 2. Here is the method: Fig. 3 dCypher histone peptide-binding assays define the PTM recognition preference of PHD proteins with high sensitivity. a–h Binding curves to determine optimal reader protein concentration for full peptide library screening on the dCypher® AlphaScreen® platform (see “Methods”). X-axes are log(protein concentration (M)) at constant peptide concentration (100 nM); Y-axes are AlphaScreen counts, representing relative strength of binding (n = 2; error bars are S.D.). i Heat map represents relative binding to H3 N-terminal peptides (left) by PHD-containing GST-tagged proteins (top) using the dCypher AlphaScreen platform. Protein concentrations can be found in Additional file 5: Table S4. […]
as §4
The dCypher peptide screen assay was performed as previously described. Briefly, 5 μL of GST-tagged reader domains (optimal protein concentration for library screening determined by initial binding curves to candidate peptides) were incubated with 5 μL of 400 nM (100 nM Final) biotinylated histone peptides (EpiCypher) for 30 min at 23 °C in 1× AlphaLISA Epigenetics buffer + epigenetics buffer supplement (PerkinElmer, AL1008) in a 384-well plate. […]

In the case of “H3 (1-20): unmodified H3 N-terminal peptide (1–20)”, the “binding in peptide pulldown” value in the assay on KDM5B (PHD1) is “reads H3K4me0”.
For the substance H3K4me1: H3 1-20 [Peptide H3K4me1], the binding result in the assay on DIDO1 and with MLL5 was “also identified interaction of these domains with the H3K4me1 peptide” in each case.
For the substance H3K4me3: H3 1-20 [Peptide H3K4me3], the binding entry in the assay on KDM7A is recorded as “reader of H3K4me3”. In addition, the “binding in peptide pulldown” value with KDM7A PHD finger is listed as “binds H3K4me3”.
On to H3K9me3: H3 1-20 [Peptide H3K9me3], for which the binding result with DPF2 (PPC2W2) was “ability to bind to the peptides containing H3K9me3”.
In the case of H3S10p: H3 1-20 [Peptide H3S10p], the “loss of binding on S10 phosphorylation” value in the assay with H3K4me0 readers is given as “this phenomenon is also observed”.

The values are drawn from paper PMC6979384, “Characterization of the plant homeodomain (PHD) reader family for their histone tail interactions” (Epigenetics & Chromatin, 2020).
